Experimental data from ChEMBL document CHEMBL1159190, “Determination of the active conformation of 6-amino--[(4-diphenylmethyl-1-piperazinyl)methyl-9H-purine]-9-ethanol: a positive inotropic agent” (1993).

Columns and labels:
Rattus norvegicus [1] = species: Rattus norvegicus; assay: Contractile force determined in rat atria; type: functional
Rattus norvegicus [2] = species: Rattus norvegicus; assay: Functional refractory period (FRP) determined in rat atria
[3] = Rattus norvegicus, read-out: EC25

Structure (SMILES) | EC25 (Rattus norvegicus [1]) | EC25 (Rattus norvegicus [2]) | EC25 (Rattus norvegicus [1]; [3]) | EC25 (Rattus norvegicus [2]; [3])
Nc1ncnc2c1ncn2C1CCCC(N2CCN(C(c3ccccc3)c3ccccc3)CC2)C1O (trans isomer) | 1.2 µM | 9 µM |  | 
Nc1ncnc2c1ncn2C1CCCC(N2CCN(C(c3ccccc3)c3ccccc3)CC2)C1O (stereo in doubt) | 1.5 µM | 0.9 µM |  | 
Nc1ncnc2c1ncn2C1CCCC(N2CCN(C(c3ccccc3)c3ccccc3)CC2)C1O (cis isomer) | 20 µM | 17 µM |  | 
Nc1ncnc2c1ncn2CC(O)CN1CCN(C(c2ccccc2)c2ccccc2)CC1 (configuration not stated) |  |  | 0.5 µM | 0.2 µM
Nc1ncnc2c1ncn2C[C@]1(O)CC[C@H]2CN(C(c3ccccc3)c3ccccc3)CCN2C1 |  |  | 6.5 µM | 1.8 µM
Nc1ncnc2c1ncn2C[C@@]1(O)CC[C@H]2CN(C(c3ccccc3)c3ccccc3)CCN2C1 |  |  | 15 µM | 15 µM
